# Reference: patent US10351522B2, “Sulfonamide derivative and pharmaceutically acceptable acid addition salt thereof” (UNIVERSITY OF TSUKUBA, priority 2015, dated 2019)
# Read-outs that look alike come from different tables or passages of the source.
# How the values were obtained:
# human OX2R = molecular target: T1, human OX2R (Homo sapiens, UniProt O43614); assay: Agonist activity against OX2R: intracellular calcium (Fura-2AM, FDSS7000) in CHOOX2R cells; type: cell-based; details: relative to orexin-A as full agonist (100%)
# T1 construct: expressed in transfected cells; host or cells: CHO (Chinese hamster ovary) cells, line CHOOX2R, co-expressing NFAT-luciferase
# T1 sequence (O43614 1-444): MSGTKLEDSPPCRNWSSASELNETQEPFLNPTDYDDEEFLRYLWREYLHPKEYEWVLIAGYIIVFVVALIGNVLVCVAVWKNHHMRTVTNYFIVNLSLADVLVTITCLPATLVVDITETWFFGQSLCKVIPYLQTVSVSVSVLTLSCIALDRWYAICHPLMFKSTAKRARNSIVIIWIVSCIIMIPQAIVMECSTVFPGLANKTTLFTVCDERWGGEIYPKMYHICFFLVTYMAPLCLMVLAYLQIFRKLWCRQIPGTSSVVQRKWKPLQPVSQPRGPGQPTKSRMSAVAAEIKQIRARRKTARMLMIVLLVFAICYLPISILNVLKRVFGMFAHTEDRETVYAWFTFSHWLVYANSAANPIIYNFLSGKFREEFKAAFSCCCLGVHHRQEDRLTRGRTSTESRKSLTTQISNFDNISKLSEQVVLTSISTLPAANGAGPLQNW
# Protocol: (§1) Evaluation of Agonist Activity Against OX1R and OX2R
# (§2) NAFT-luciferase gene and human OX1R gene were constitutively expressed in CHO cell, which is a cell line derived from Chinese hamster ovary to establish a cell line (CHOOX1R) and NAFT-luciferase gene and human OX2R gene were constitutively expressed in CHO cell to establish a cell line (CHOOX2R). The respective cells were seeded in a 96-well Multiplate at 10,000 cells/well and cultured in a 5% FBS (Thermo Scientific)-added DMEM medium (Sigma-Aldrich) for 48 hr. The medium was removed, an assay buffer (20 mM HEPES (Sigma-Aldrich), Hanks' balanced salt solution (Gibco), 0.1% BSA (Sigma-Aldrich), 2.5 mM probenecid acid (Wako Pure Chemical Industries, Ltd.)) (100 μL) containing 5 μM Fura-2AM (Cayman Chemical) was added, and the cells were incubated for 60 min. The buffer containing Fura-2AM was removed, and an assay buffer (75 μL) was added. An assay buffer (25 μL) containing a test compound was added thereto to start the reaction. Changes in the intracellular calcium ion concentration due to the reaction were measured by measuring the fluorescence intensity ratio by dual wavelength excitation at 340 and 380 nm, by using FDSS7000 (Hamamatsu Photonics K.K.). The test compound was dissolved in DMSO to 10 mM, and diluted with the assay buffer to a final concentration of 10^−7M to 10^−5M (final concentration of DMSO 1%).
# (§3) (As used herein, Response in Table 21 to Table 27 is a value obtained by dividing the agonist activity value, when the test compound is evaluated with orexin-A as a full-agonist (maximum value of agonist activity: 100%), at 10 μM, 1.0 μM, 0.1 μM by the agonist activity value of orexin-A.)
# human OX1R = molecular target: T2, human OX1R (Homo sapiens, UniProt O43613); assay: Agonist activity against OX1R: intracellular calcium (Fura-2AM, FDSS7000) in CHOOX1R cells; type: cell-based; details: for Emax at 0.1 µM / Emax at 1 µM / Emax at 10 µM: read-out: Response (%) OX1R
# T2 construct: expressed in transfected cells; host or cells: CHO (Chinese hamster ovary) cells, line CHOOX1R, co-expressing NFAT-luciferase
# T2 sequence (O43613 1-425): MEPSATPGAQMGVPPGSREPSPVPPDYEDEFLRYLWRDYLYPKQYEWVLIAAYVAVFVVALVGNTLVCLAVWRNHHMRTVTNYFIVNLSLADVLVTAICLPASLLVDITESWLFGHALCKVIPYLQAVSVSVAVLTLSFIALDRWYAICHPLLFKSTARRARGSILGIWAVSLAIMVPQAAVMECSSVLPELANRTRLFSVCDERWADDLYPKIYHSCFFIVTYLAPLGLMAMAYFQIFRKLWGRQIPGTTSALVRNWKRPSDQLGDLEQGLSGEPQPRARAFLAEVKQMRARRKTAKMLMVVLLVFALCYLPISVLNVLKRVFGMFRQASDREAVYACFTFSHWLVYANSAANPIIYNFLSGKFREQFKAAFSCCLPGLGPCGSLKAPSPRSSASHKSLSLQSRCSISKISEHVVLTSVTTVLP
# Protocol: as §1, §2, §3
# [1] = 0.1 μM test compound, relative to orexin-A as full agonist (100%)
# [2] = 1.0 μM test compound, relative to orexin-A as full agonist (100%)
# [3] = 10 μM test compound, relative to orexin-A as full agonist (100%)
# [4] = test compound 0.1 μM, relative to orexin-A as full agonist (100%)
# [5] = test compound 1.0 μM, relative to orexin-A as full agonist (100%)
# [6] = test compound 10 μM, relative to orexin-A as full agonist (100%)
Compound,Response (%) OX2R (human OX2R; 0.1 μM test compound) [%],Response (%) OX2R (human OX2R; 1.0 μM test compound) [%],Response (%) OX2R (human OX2R; 10 μM test compound) [%],Response (%) OX1R (human OX1R; [1]) [%],Response (%) OX1R (human OX1R; [2]) [%],Response (%) OX1R (human OX1R; [3]) [%],other results
COc1ccccc1CNc1cccc(NS(=O)(=O)c2cc(-c3cccc(C(=O)N(C)C)c3)ccc2OC)c1 [Example 21],<5,37,54,<5,<5,12,–
COc1ccc(-c2cccc(C(=O)N(C)C)c2)cc1S(=O)(=O)Nc1cccc(NC(=O)C[S+]([O-])C(c2ccccc2)c2ccccc2)c1 (stereo not drawn) [Example 13],11,117,109,<5,63,107,–
"COc1ccc(C(=O)NCc2ccccc2)cc1S(=O)(=O)Nc1cccc(NC(=O)Nc2ccc(N(C)C)cc2)c1 [Example 108, N-benzyl-3-(N-(3-(3-(4-(dimethylamino)phenyl)ureido)phenyl)sulfamoyl)-4-methoxybenzamide]",–,–,–,–,–,–,Response (%) OX2R (human OX2R; test compound 0.1 μM): 6%; Response (%) OX2R (human OX2R; test compound 1.0 μM): 6%; Response (%) OX2R (human OX2R; test compound 10 μM): 24%; Emax at 0.1 µM (human OX1R; [4]): < 5%; Emax at 1 µM (human OX1R; [5]): < 5%; Emax at 10 µM (human OX1R; [6]): < 5%
"COc1ccc(-c2cccc(C(=O)N(C)C)c2)cc1S(=O)(=O)Nc1cccc(N(C)C(=O)Nc2cccc(N(C)C)c2)c1 [Example 125, 3′-(N-(3-(3-(3-(dimethylamino)phenyl)-1-methylureido)phenyl)sulfamoyl)-4′-methoxy-N,N-dimethyl-[1,1′-biphenyl]-3-carboxamide]",–,–,–,–,–,–,Response (%) OX2R (human OX2R; test compound 0.1 μM): 42%; Response (%) OX2R (human OX2R; test compound 1.0 μM): 78%; Response (%) OX2R (human OX2R; test compound 10 μM): 79%; Emax at 0.1 µM (human OX1R): < 5%; Emax at 1 µM (human OX1R): < 5%; Emax at 10 µM (human OX1R): < 5%
COc1ccc(-c2cccc(C(=O)N(C)C)c2)cc1S(=O)(=O)Nc1cccc(N2CCCCN(c3cccc(N(C)C)c3)C2=O)c1 [Example 136],–,–,–,–,–,–,Response (%) OX2R (human OX2R; test compound 0.1 μM): 144%; Response (%) OX2R (human OX2R; test compound 1.0 μM): 97%; Response (%) OX2R (human OX2R; test compound 10 μM): 94%; Response (%) OX1R (human OX1R; [4]): <5%; Response (%) OX1R (human OX1R; [5]): 78%; Response (%) OX1R (human OX1R; [6]): 110%
COc1ccc(-c2cccc(C(=O)N(C)C)c2)cc1S(=O)(=O)Nc1cccc(Nc2ccc3c(c2)OCO3)c1 [Example 36],<5,63,93,<5,<5,10,–
COc1ccc(-c2cccc(C(=O)N(C)C)c2)cc1S(=O)(=O)Nc1cccc(NC(=O)Nc2ccc(NC(=N)NC(=O)OC(C)(C)C)cc2)c1 [Example 59],<5,18,52,<5,<5,<5,–
COc1ccc(-c2cccc(C(=O)N(C)C)c2)cc1S(=O)(=O)Nc1cccc(NS(=O)(=O)Nc2cccc(C)c2)c1 [Example 90],–,–,–,–,–,–,Response (%) OX2R (human OX2R; test compound 0.1 μM): <5%; Response (%) OX2R (human OX2R; test compound 1.0 μM): 56%; Response (%) OX2R (human OX2R; test compound 10 μM): 89%; Response (%) OX1R (human OX1R; [4]): <5%; Response (%) OX1R (human OX1R; [5]): <5%; Response (%) OX1R (human OX1R; [6]): <5%
"COc1ccc(-c2cccc(C(=O)N(C)C)c2)cc1S(=O)(=O)Nc1cccc(N(C)C(=O)N(C)c2cccc(N(C)C)c2)c1 [Example 126, 3′-(N-(3-(3-(3-(dimethylamino)phenyl)-1,3-dimethylureido)phenyl)sulfamoyl)-4′-methoxy-N,N-dimethyl-[1,1′-biphenyl]-3-carboxamide]",–,–,–,–,–,–,Response (%) OX2R (human OX2R; test compound 0.1 μM): 7%; Response (%) OX2R (human OX2R; test compound 1.0 μM): 37%; Response (%) OX2R (human OX2R; test compound 10 μM): 85%; Emax at 0.1 µM (human OX1R): 5%; Emax at 1 µM (human OX1R): 5%; Emax at 10 µM (human OX1R): < 5%

# Further lines, with some results ahead:
Response (%) OX2R (human OX2R; 0.1 μM test compound) [%],Response (%) OX2R (human OX2R; 1.0 μM test compound) [%],Response (%) OX2R (human OX2R; 10 μM test compound) [%],Response (%) OX1R (human OX1R; [1]) [%],Response (%) OX1R (human OX1R; [2]) [%],Response (%) OX1R (human OX1R; [3]) [%],Compound,other results
<5,51,78,–,–,–,"COc1ccc(-c2cccc(C(=O)N(C)C)c2)cc1S(=O)(=O)Nc1cccc(NCc2ccccc2)c1 [Example 20, 3′-(N-(3-(benzylamino)phenyl)sulfamoyl)-4′-methoxy-N,N-dimethyl-[1,1′-biphenyl]-3-carboxamide]",Emax at 0.1 µM (human OX1R; [1]): < 5%; Emax at 1 µM (human OX1R; [2]): < 5%; Emax at 10 µM (human OX1R; [3]): 17%
8,13,61,9,8,27,COc1ccc(-c2cccc(C(=O)N(C)C)c2)cc1S(=O)(=O)Nc1cccc(NC(=O)c2ccc(N(C)C)cc2)c1 [Example 8],–
<5,6,23,14,9,12,COc1ccc(-c2cccc(C(=O)N(C)C)c2)cc1S(=O)(=O)Nc1cccc(NC(=O)c2cccc(Br)c2)c1 [Example 3],–
100,94,97,<5,<5,<5,COc1ccc(-c2cccc(C(=O)N(C)C)c2)cc1S(=O)(=O)Nc1cccc(NC(=O)Nc2cccc(Br)c2)c1 [Example 50],–
61,94,95,–,–,–,"COc1ccc(-c2cccc(C(=O)N(C)C)c2)cc1S(=O)(=O)Nc1cccc(NC(=S)Nc2ccccc2)c1 [Example 75, 4′-methoxy-N,N-dimethyl-3′-(N-(3-(3-phenylthioureido)phenyl)sulfamoyl)-[1,1′-biphenyl]-3-carboxamide]",Emax at 0.1 µM (human OX1R; [1]): < 5%; Emax at 1 µM (human OX1R; [2]): < 5%; Emax at 10 µM (human OX1R; [3]): 30%
9,9,46,6,6,6,COc1ccc(-c2cccc(C(=O)N(C)C)c2)cc1S(=O)(=O)Nc1cccc(NC(=O)Nc2ccncc2)c1 [Example 70],–
91,92,60,<5,<5,<5,COc1ccc(-c2cccc(C(=O)N(C)C)c2)cc1S(=O)(=O)Nc1cccc(NC(=O)Nc2cccc([N+](=O)[O-])c2)c1 [Example 57],–
<5,72,93,<5,<5,6,COc1ccc(-c2cccc(C(=O)N(C)C)c2)cc1S(=O)(=O)Nc1cccc(NCc2ccccc2C)c1 [Example 24],–
68,82,71,<5,<5,<5,COc1ccc(-c2cccc(C(=O)N(C)C)c2)cc1S(=O)(=O)Nc1cccc(NC(=O)Nc2cccc(C)c2)c1 [Example 38],–
